# Measured values reported in patent publication US10669290B2, “Beta-lactamase inhibitors” (priority 2012, dated 2020).
# Assays:
# Type in all cases: cell-based
# E. cl 144200 p99 AmpC = assay: Broth microdilution MIC, E. cloacae 144200; settings: Enterobacter cloacae; fixed ceftazidime 4 μg/mL, CAMHB, 16-20 hours 37° C.; read-out: MIC of exemplary compounds in presence of fixed β-lactams, Fixed CAZ, E. cl 144200 p99 AmpC
# Source text: (§1) To determine the ability of test compounds to potentiate the inhibition of the growth of bacterial strains that produce beta-lactamase enzymes, classic cell based broth microdilution MIC assays were employed. Six bacteria strains producing beta-lactamase enzymes were used: E. coli expressing the Class A Extended Spectrum Beta-Lactamase (ESBL) CTX-M-15, E. cloacae expressing the Class C P99, K. pneumoniae expressing the Class A carbapenemase KPC-2, P. aeruginosa expressing the Class B carbapenemase VIM-2, K. pneumoniae expressing the class A carbapenemase KPC-2 and the class B carbapenemase VIM-4, and S. aureus producing the Class A penicillinase PC-1. The assay was conducted in Cation Adjusted Mueller Hinton Broth (CAMHB, BD #212322, BD Diagnostic Systems, Sparks, Md.). Bacteria strains were grown for 3-5 hours in CAMBH broth. Test compounds were added to a microtiter plate in 2-fold serial dilutions in CAMHB in a final concentration range of 32 μg/mL to 0.25 μg/ml. An overlay of CAMHB containing a Beta-lactam was added to the compounds at a final static concentration of 4 μg/ml. […] In addition to the titration of test compounds the MICs of a panel of control beta-lactams is also tested to ensure the strains are behaving consistently from test to test. Once the test compound and antibiotics are added the plates can be inoculated according to CLSI broth microdilution method. After inoculation the plates are incubated for 16-20 hours at 37° C. then the Minimal Inhibitory Concentration (MIC) of the test compound is determined visually.
# (§2) Using the methodology described above in EXAMPLE III, exemplary compounds for Formula I or Formula Ia were evaluated for their ability to inhibit the growth of β-lactamase producing bacteria in the presence of a β-lactam antibiotic.
# K.P. 156319 KPC-3 = assay: Broth microdilution MIC, K. pneumoniae 156319; settings: Klebsiella pneumoniae; fixed meropenem 4 μg/mL, CAMHB, 16-20 hours 37° C.; read-out: MIC of exemplary compounds in presence of fixed β-lactams, Fixed Mero, K.P. 156319 KPC-3
# P. aerug. Ps296 VIM-2 = assay: Broth microdilution MIC, P. aeruginosa Ps296; settings: Pseudomonas aeruginosa; fixed meropenem 4 μg/mL, CAMHB, 16-20 hours 37° C.; read-out: MIC of exemplary compounds in presence of fixed β-lactams, Fixed Mero, P. aerug. Ps296 VIM-2
# Source text: as §1, §2
# K.P. A-1797 KPC-2 VIM-4 = assay: Broth microdilution MIC, K. pneumoniae A-1797; settings: Klebsiella pneumoniae; fixed meropenem 4 μg/mL, CAMHB, 16-20 hours 37° C.; read-out: MIC of exemplary compounds in presence of fixed β-lactams, Fixed Mero, K.P. A-1797 KPC-2 VIM-4
# Source text: as §1, §2
# E. coli ESBL4 CTX-M-15 = assay: Broth microdilution MIC, E. coli ESBL4; settings: Escherichia coli, ESBL4CTXM15; fixed ceftazidime 4 μg/mL, CAMHB, 16-20 hours 37° C.; read-out: MIC of exemplary compounds in presence of fixed β-lactams, Fixed CAZ, E. coli ESBL4 CTX-M-15
# Source text: as §1, §2
# S. aureus MSSA-7 PC-1 = assay: Broth microdilution MIC, S. aureus MSSA-7; settings: Staphylococcus aureus, fixed piperacillin 4 μg/mL, CAMHB, 16-20 hours 37° C., read-out: MIC of exemplary compounds in presence of fixed β-lactams, Fixed Pip, S. aureus MSSA-7 PC-1
# Source text: as §1, §2
MIC (E. cl 144200 p99 AmpC),MIC (K.P. 156319 KPC-3),MIC (P. aerug. Ps296 VIM-2),MIC (K.P. A-1797 KPC-2 VIM-4),MIC (E. coli ESBL4 CTX-M-15),MIC (S. aureus MSSA-7 PC-1),Compound
< 4 µg/mL,< 4 µg/mL,< 4 µg/mL,> 32 µg/mL,< 4 µg/mL,< 4 µg/mL,"NCCNC1CCC(O)(CC(=O)N[C@H]2Cc3cccc(C(=O)O)c3OB2O)CC1 (stereo partly drawn) [Example 43, 3-{2-[4-(2-Amino-ethylamino)-1-hydroxy-cyclohexyl]-acetylamino}-2-hydroxy-3,4-dihydro-2H-benzo[e][1,2]oxaborinine-8-carboxylic acid]"
< 4 µg/mL,< 4 µg/mL,< 4 µg/mL,< 4 µg/mL,< 4 µg/mL,< 4 µg/mL,"NCCN[C@H]1CC[C@@H](CC(=O)N[C@H]2Cc3cccc(C(=O)O)c3OB2O)CC1 [Example 46, (R)-3-(2-(cis-4-(2-aminoethylamino)cyclohexyl)acetamido)-2-hydroxy-3,4-dihydro-2H-benzo[e][1,2]oxaborinine-8-carboxylic acid]"
< 4 µg/mL,< 4 µg/mL,8 to 32 µg/mL,8 to 32 µg/mL,< 4 µg/mL,< 4 µg/mL,"O=C(C[C@H]1CC[C@H](NCCNc2ccccn2)CC1)N[C@H]1Cc2cccc(C(=O)O)c2OB1O [Example 48, (R)-2-hydroxy-3-(2-(trans-4-(2-(pyridin-2-ylamino)ethylamino)cyclohexyl)acetamido)-3,4-dihydro-2H-benzo[e][1,2]oxaborinine-8-carboxylic acid]"
< 4 µg/mL,< 4 µg/mL,< 4 µg/mL,8 to 32 µg/mL,< 4 µg/mL,< 4 µg/mL,"COC(=O)NCCN[C@H]1CC[C@H](CC(=O)N[C@H]2Cc3cccc(C(=O)O)c3OB2O)CC1 [Example 54, (R)-2-hydroxy-3-(2-(trans-4-(2-(methoxycarbonylamino)ethylamino)cyclohexyl)acetamido)-3,4-dihydro-2H-benzo[e][1,2]oxaborinine-8-carboxylic acid]"
< 4 µg/mL,< 4 µg/mL,< 4 µg/mL,< 4 µg/mL,< 4 µg/mL,< 4 µg/mL,"NC1CC(CC(=O)N[C@H]2Cc3cccc(C(=O)O)c3OB2O)C1 (stereo partly drawn) [Example 56, (R)-3-(2-(3-aminocyclobutyl)acetamido)-2-hydroxy-3,4-dihydro-2H-benzo[e][1,2]oxaborinine-8-carboxylic acid]"
< 4 µg/mL,< 4 µg/mL,< 4 µg/mL,8 to 32 µg/mL,< 4 µg/mL,< 4 µg/mL,"NCCNC(=O)N[C@H]1CC[C@H](CC(=O)N[C@H]2Cc3cccc(C(=O)O)c3OB2O)CC1 [Example 59, (R)-3-(2-(trans-4-(3-(2-aminoethyl)ureido)cyclohexyl)acetamido)-2-hydroxy-3,4-dihydro-2H-benzo[e][1,2]oxaborinine-8-carboxylic acid]"

# Second part, the compound before the results:
Compound,MIC (E. cl 144200 p99 AmpC),MIC (K.P. 156319 KPC-3),MIC (P. aerug. Ps296 VIM-2),MIC (K.P. A-1797 KPC-2 VIM-4),MIC (E. coli ESBL4 CTX-M-15),MIC (S. aureus MSSA-7 PC-1)
"N[C@@H](C(=O)N[C@H]1Cc2cccc(C(=O)O)c2OB1O)C1CCCCC1 [Example 42, (R)-3-((R)-2-amino-2-cyclohexylacetamido)-2-hydroxy-3,4-dihydro-2H-benzo[e][1,2]oxaborinine-8-carboxylic acid]",< 4 µg/mL,< 4 µg/mL,< 4 µg/mL,8 to 32 µg/mL,< 4 µg/mL,8 to 32 µg/mL
"NC1CCC(O)(CC(=O)N[C@H]2Cc3cccc(C(=O)O)c3OB2O)CC1 (stereo partly drawn) [Example 44, 3-[2-(4-Amino-1-hydroxy-cyclohexyl)-acetylamino]-2-hydroxy-3,4-dihydro-2H-benzo[e][1,2]oxaborinine-8-carboxylic acid]",< 4 µg/mL,< 4 µg/mL,8 to 32 µg/mL,< 4 µg/mL,< 4 µg/mL,8 to 32 µg/mL
"N[C@H]1CC[C@H](NCC(=O)N[C@H]2Cc3cccc(C(=O)O)c3OB2O)CC1 [Example 45, 3-[2-(4-Amino-cyclohexylamino)-acetylamino]-2-hydroxy-3,4-dihydro-2H-benzo[e][1,2]oxaborinine-8-carboxylic acid]",< 4 µg/mL,< 4 µg/mL,8 to 32 µg/mL,8 to 32 µg/mL,< 4 µg/mL,< 4 µg/mL
"CS(=O)(=O)NCCN[C@H]1CC[C@H](CC(=O)N[C@H]2Cc3cccc(C(=O)O)c3OB2O)CC1 [Example 49, (R)-2-hydroxy-3-(2-(trans-4-(2-(methylsulfonamido)ethylamino)cyclohexyl)acetamido)-3,4-dihydro-2H-benzo[e][1,2]oxaborinine-8-carboxylic acid]",< 4 µg/mL,< 4 µg/mL,8 to 32 µg/mL,8 to 32 µg/mL,< 4 µg/mL,< 4 µg/mL
"NCCN[C@H]1CC[C@H](CC(=O)N[C@@H]2Cc3cccc(C(=O)O)c3OB2O)CC1 [Example 50, (S)-3-(2-(trans-4-(2-aminoethylamino)cyclohexyl)acetamido)-2-hydroxy-3,4-dihydro-2H-benzo[e][1,2]oxaborinine-8-carboxylic acid]",< 4 µg/mL,> 32 µg/mL,< 4 µg/mL,8 to 32 µg/mL,< 4 µg/mL,< 4 µg/mL
"CNCCN[C@H]1CC[C@H](CC(=O)N[C@H]2Cc3cccc(C(=O)O)c3OB2O)CC1 [Example 51, (R)-2-hydroxy-3-(2-(trans-4-(2-(methylamino)ethylamino)cyclohexyl)acetamido)-3,4-dihydro-2H-benzol[e][1,2]oxaborinine-8-carboxylic acid]",< 4 µg/mL,< 4 µg/mL,< 4 µg/mL,< 4 µg/mL,< 4 µg/mL,< 4 µg/mL
"CN1CCN([C@H]2CC[C@H](CC(=O)N[C@H]3Cc4cccc(C(=O)O)c4OB3O)CC2)C1=N [Example 52, (R)-2-hydroxy-3-(2-(trans-4-(2-imino-3-methylimidazolidin-1-yl)cyclohexyl)acetamido)-3,4-dihydro-2H-benzo[e][1,2]oxaborinine-8-carboxylic acid]",< 4 µg/mL,8 to 32 µg/mL,> 32 µg/mL,> 32 µg/mL,< 4 µg/mL,< 4 µg/mL
"C[C@H](N)CN[C@H]1CC[C@H](CC(=O)N[C@H]2Cc3cccc(C(=O)O)c3OB2O)CC1 [Example 53, (R)-3-(2-(trans-4-((S)-2-aminopropylamino)cyclohexyl)acetamido)-2-hydroxy-3,4-dihydro-2H-benzo[e][1,2]oxaborinine-8-carboxylic acid]",< 4 µg/mL,< 4 µg/mL,< 4 µg/mL,< 4 µg/mL,< 4 µg/mL,< 4 µg/mL
"NCCNC1CC(CC(=O)N[C@H]2Cc3cccc(C(=O)O)c3OB2O)C1 (stereo partly drawn) [Example 55, (R)-3-(2-(3-(2-aminoethylamino)cyclobutyl)acetamido)-2-hydroxy-3,4-dihydro-2H-benzo[e][1,2]oxaborinine-8-carboxylic acid]",< 4 µg/mL,< 4 µg/mL,< 4 µg/mL,< 4 µg/mL,< 4 µg/mL,< 4 µg/mL
"NCCNC(=O)NCCN(C(=O)NCCN)C1CC(CC(=O)N[C@H]2Cc3cccc(C(=O)O)c3OB2O)C1 (stereo partly drawn) [Example 57, (R)-3-(2-(3-(3-(2-aminoethyl)-1-(2-(3-(2-aminoethyl)ureido)ethyl)ureido)cyclobutyl)acetamido)-2-hydroxy-3,4-dihydro-2H-benzo[e][1,2]oxaborinine-8-carboxylic acid]",< 4 µg/mL,< 4 µg/mL,< 4 µg/mL,8 to 32 µg/mL,< 4 µg/mL,< 4 µg/mL
"NCCNC(=O)NC1CC(CC(=O)N[C@H]2Cc3cccc(C(=O)O)c3OB2O)C1 (stereo partly drawn) [Example 58, (R)-3-(2-(3-(3-(2-aminoethyl)ureido)cyclobutyl)acetamido)-2-hydroxy-3,4-dihydro-2H-benzo[e][1,2]oxaborinine-8-carboxylic acid]",< 4 µg/mL,< 4 µg/mL,< 4 µg/mL,< 4 µg/mL,< 4 µg/mL,< 4 µg/mL
